IC50 and AC50 data for eight compounds are collected here from patent publication US20230142338A1, “THIOPHENYL DERIVATIVES USEFUL FOR MODULATING NUCLEIC ACID SPLICING” (REMIX THERAPEUTICS INC., priority 2020, published 2023).

One may read the IC50 as the concentration needed to halve the response being measured. As usually defined, the AC50 is the concentration giving half of the maximal activity seen. A lower AC50 goes with greater potency.

Common to all, as to format: cell-based
One assay relates to SMN2 CJ mRNA. The experiment in a line: Gene panel canonical junction qPCR assay: SMN2. The conditions noted are these: Table 3, concentration having 50% response in CJ decrease, read-out: SMN2 IC50 (decrease in CJ mRNA levels). As to the method:
(§1) Compounds described herein were used to modulate RNA transcript abundance in cells. The expression of a target mRNA was measured by detecting the formation of an exon-exon junction in the canonical transcript (CJ). A compound mediated exon-inclusion event was detected by observing an increase in formation of a new junction with an alternative exon (AJ). Real-time qPCR assays were used to detect these splicing switches and interrogate the potency of various compounds towards different target genes. A high-throughput real time quantitative PCR (RT-qPCR) assay was developed to measure these two isoforms of the mRNA (CJ and AJ) for an exemplary gene, HTT, together with a control housekeeping gene, GAPDH or GUSB or PPIA, used for normalization. Briefly, the A673 or K562 cell line was treated with various compounds described herein (e.g., compounds of Formula (I)). After treatment, the levels of the HTT mRNA targets were determined from each sample of cell lysate by cDNA synthesis followed by qPCR.
(§2) The A673 cell line was cultured in DMEM with 10% FBS. Cells were diluted with full growth media and plated in a 96-well plate (15,000 cells in 100 ul media per well). The plate was incubated at 37° C. with 5% CO2 for 24 hours to allow cells to adhere. An 11-point 3-fold serial dilution of the compounds was made in DMSO then diluted in media in an intermediate plate. Compounds were transferred from the intermediate plate to the cell plate with the top dose at a final concentration of 10 uM in the well. Final DMSO concentration was kept at or below 0.25%. The cell plate was returned to the incubator at 37° C. with 5% CO2 for an additional 24 hours.
(§3) The K562 cell line was cultured in IMDM with 10% FBS. For K562, cells were diluted with full growth media and plated in either a 96-well plate (50,000 cells in 50 uL media per well) or a 384-well plate (8,000-40,000 cells in 45 uL media per well). An 11-point 3-fold serial dilution of the compounds were made in DMSO then diluted in media in an intermediate plate. Compound was transferred from the intermediate plate to the cell plate with the top dose at a final concentration of 10 uM in the well. Final DMSO concentration was kept at or below 0.25%. Final volume was 100 uL for 96-well plate and 50 uL for 384-well plate. The cell plate was then placed in an incubator at 37° C. with 5% CO2 for 24 hours.
(§4) The cells were then gently washed with 50 uL-100 uL cold PBS before proceeding to addition of lysis buffer. 30 uL-50 uL of room temperature lysis buffer with DNAse I (and optionally RNAsin) was added to each well. Cells were shaken/mixed thoroughly at room temperature for 5-10 minutes for lysis to take place and then 3 uL-5 uL of room temperature stop solution was added and wells were shaken/mixed again. After 2-5 minutes, the cell lysate plate was transferred to ice for RT-qPCR reaction setup. The lysates could also be frozen at −80° C. for later use.
(§5) In some cases, a direct lysis buffer was used. An appropriate volume of 3× lysis buffer (10 mM Tris, 150 mM NaCl, 1.5%-2.5% Igepal and 0.1-1 U/uL RNAsin, pH 7.4) was directly added to either K562 or A673 cells in media and mixed by pipetting 3 times. The plates were then incubated at room temperature with shaking/rocking for 20-50 minutes to allow for lysis to take place. After this time, the cell lysate plate was transferred to ice to set up for the RT-qPCR reactions. The lysates could also be frozen at −80° C. for later use.
(§6) To set up 10 uL RT-qPCR reactions, cell lysates were transferred to 384-well qPCR plates containing the master mix according to the table below. The plates were sealed, gently vortexed, and spun down before the run. The volumes were adjusted accordingly in some instances where the reaction was carried in 20 uL. The table below summarizes the components of the RT-qPCR reactions:
(§7) The RT-qPCR reaction was performed using a QuantStudio (ThermoFisher) under the following fast cycling conditions. […]

Assay [1] deals with HTT CJ mRNA. The assay can be described thus: Gene panel canonical junction qPCR assay: HTT. The conditions noted are these: Table 3, concentration having 50% response in CJ decrease, read-out: HTT IC50 (decrease in CJ mRNA levels). As to the method: as §1, §2, §3, §4, §5, §6, §7
A general note: Quantitative PCR measures a nucleic acid by following its amplification.

A further assay deals with Target C CJ mRNA. The experiment in a line: Gene panel canonical junction qPCR assay: Target C. The conditions noted are these: Table 3, concentration having 50% response in CJ decrease, read-out: Target C IC50 (decrease in CJ mRNA levels). How it is done: as §1, §2, §3, §4, §5, §6, §7
In another assay the test system is HTT AJ mRNA. The assay can be described thus: Splicing assay (RT-qPCR): increase in HTT alternative junction (AJ) mRNA. The conditions noted are these: A673 or K562 cells, 24 hours treatment; concentration having 50% response in AJ mRNA increase. As to the method:
as §1, §2, §3, §4, §5, §6, §7

For assay [2], the system named is HTT CJ mRNA. The experiment in a line: Splicing assay (RT-qPCR): decrease in HTT canonical junction (CJ) mRNA. The conditions noted are these: A673 or K562 cells, 24 hours treatment; concentration having 50% response in CJ mRNA decrease. How it is done:
as §1, §2, §3, §4, §5, §6, §7

Turning to `Cc1cn2cc(NC(=O)c3sc([C@@H]4CCN[C@@H](C)C4)cc3F)cc(F)c2n1` [Compound 116, 3-fluoro-N-[8-fluoro-2-methylimidazo[1,2-a]pyridin-6-yl]-5-[(2S,4R)-2-methylpiperidin-4-yl]thiophene-2-carboxamide], the figures for the half-maximal inhibitory concentration (IC50) in the assay with SMN2 CJ mRNA, in the assay with HTT CJ mRNA [1] and in the assay with Target C CJ mRNA were below 0.1 µM, 0.1 to 1 µM and 1 to 10 µM, respectively. Also, the half-maximal activity concentration (AC50) in the assay with HTT AJ mRNA and in the assay with HTT CJ mRNA [2] was 0.1 to 1 µM in each case.

As for `Cc1cn2cc(NC(=O)c3sc([C@H]4CCN[C@H](C)C4)cc3F)cc(F)c2n1` [Compound 117, 3-fluoro-N-[8-fluoro-2-methylimidazo[1,2-a]pyridin-6-yl]-5-[(2R,4S)-2-methylpiperidin-4-yl]thiophene-2-carboxamide], the IC50 was 0.1 to 1 µM with SMN2 CJ mRNA, 0.1 to 1 µM with HTT CJ mRNA [1] and 1 to 10 µM in the assay with Target C CJ mRNA. Besides, the results for the half-maximal activity concentration (AC50) in the assay on HTT AJ mRNA and in the assay with HTT CJ mRNA [2] were 1 to 10 µM and 0.1 to 1 µM, respectively.

Turning to `Cc1cn2cc(NC(=O)c3sc(N4CCN(C)CC4)cc3F)cc(F)c2n1` [Compound 127, 3-fluoro-N-[8-fluoro-2-methylimidazo [1,2-a]pyridin-6-yl]-5-(4-methylpiperazin-1-yl) thiophene-2-carboxamide], the IC50 in the assay with SMN2 CJ mRNA was 0.1 to 1 µM; in the assay with HTT CJ mRNA [1], above 0.01 µM; with Target C CJ mRNA, below 0.1 µM. The AC50 in the assay with HTT AJ mRNA and in the assay with HTT CJ mRNA [2] was above 10 µM throughout.

With `Cc1cn2cc(NC(=O)c3sc(N4CCN(C)C(C)C4)cc3F)cc(F)c2n1` (stereo not shown) [Compound 129, 5-(3,4-dimethylpiperazin-1-yl)-3-fluoro-N-[8-fluoro-2-methylimidazo[1,2-a]pyridin-6-yl]thiophene-2-carboxamide], the IC50 was 1 to 10 µM in the assay on SMN2 CJ mRNA, above 0.01 µM in the assay on HTT CJ mRNA [1] and above 0.01 µM with Target C CJ mRNA. Besides, the half-maximal activity concentration (AC50) in the assay with HTT AJ mRNA and in the assay on HTT CJ mRNA [2] was above 10 µM each time.

As for `Cc1cn2cc(NC(=O)c3sc(N4CCNC(C)(C)C4)cc3F)cc(F)c2n1` [Compound 131, 5-(3,3-dimethylpiperazin-1-yl)-3-fluoro-N-[8-fluoro-2-methylimidazo[1,2-a]pyridin-6-yl] thiophene-2-carboxamide], the IC50 with SMN2 CJ mRNA was 0.1 to 1 µM; in the assay with HTT CJ mRNA [1] it was 1 to 10 µM; in the assay on Target C CJ mRNA, above 0.01 µM. Besides, the concentration at half-maximal activity (AC50) in the assay with HTT AJ mRNA and with HTT CJ mRNA [2] was 1 to 10 µM throughout.

As to `Cc1cn2cc(NC(=O)c3sc(N4CCNC5(CC5)C4)cc3F)cc(F)c2n1` [Compound 132, 5-[4,7-diazaspiro[2.5]octan-7-yl]-3-fluoro-N-[8-fluoro-2-methylimidazo[1,2-a]pyridin-6-yl]thiophene-2-carboxamide], the IC50 with SMN2 CJ mRNA is 1 to 10 µM; in the assay on HTT CJ mRNA [1], above 0.01 µM; with Target C CJ mRNA, above 0.01 µM. The AC50 in the assay on HTT AJ mRNA and with HTT CJ mRNA [2] was above 10 µM throughout.

For `Cc1cn2cc(NC(=O)c3sc(N4CC(C)(C)NC(C)(C)C4)cc3F)cc(F)c2n1` [Compound 133, 3-fluoro-N-[8-fluoro-2-methylimidazo[1,2-a]pyridin-6-yl]-5-(3,3,5,5-tetramethylpiperazin-1-yl)thiophene-2-carboxamide], the IC50 with SMN2 CJ mRNA is 1 to 10 µM; with HTT CJ mRNA [1], above 0.01 µM; with Target C CJ mRNA, above 0.01 µM. Besides, the concentration at half-maximal activity (AC50) in the assay on HTT AJ mRNA and in the assay on HTT CJ mRNA [2] was above 10 µM each time.

On to `Cc1cn2cc(NC(=O)c3sc(N4CC5(CNC5)C4)cc3F)cc(F)c2n1` [Compound 134, 5-[2,6-diazaspiro[3.3]heptan-2-yl]-3-fluoro-N-[8-fluoro-2-methylimidazo[1,2-a]pyridine-6-yl]thiophene-2-carboxamide], for which the half-inhibitory concentration (IC50) with SMN2 CJ mRNA was 0.1 to 1 µM; with HTT CJ mRNA [1], 1 to 10 µM; in the assay on Target C CJ mRNA, 1 to 10 µM. Also, the concentration at half-maximal activity (AC50) in the assay on HTT AJ mRNA and in the assay on HTT CJ mRNA [2] was 1 to 10 µM throughout.
